Test results reported in paper PMC8606745 (Frontiers in Microbiology, 2021).
Like-named read-outs stand apart in the source and are kept apart here. Peptide text beside a SMILES is read from it.

What was measured:
[1] = system: X. fastidiosa subsp. fastidiosa IVIA 5387.2; type: cell-based, Xylella fastidiosa
[2] = system: X. fastidiosa subsp. fastidiosa IVIA 5387.2
Gram-negative bacteria [3] = system: Gram-negative bacteria; parameters: key: Xf: Xylella fastidiosa; Ec: Escherichia coli; Pa: Pseudomonas aeruginosa; Ab: Acinetobacter baumannii; Kp: Klebsiella pneumoniae; Bc: Burkholderia cenocepacia; Se: Salmonella enterica subsp. enterica; Sp: Salmonella pullorum; –: low or no activity; conditions: cited from earlier work
Gram-negative bacteria [4] = system: Gram-negative bacteria; parameters: key: Xf: Xylella fastidiosa; Ec: Escherichia coli; Pa: Pseudomonas aeruginosa; Ab: Acinetobacter baumannii; Kp: Klebsiella pneumoniae; Bc: Burkholderia cenocepacia; Se: Salmonella enterica subsp. enterica; Sp: Salmonella pullorum; –: low or no activity; conditions: cited from earlier work; remark: listed apart in the source

Molecule | Biofilm formation Level (antibiofilm activity) ([1]; 50 µM) | Biofilm formation Ratio (treatment/NTC) ([1]; 50 µM) | Planktonic cells Ratio (treatment/NTC) ([1]; 50 µM) | Bactericidal activity: Reduction in viability (Log N0/N) ([2]; 50 µM) | Hemolysis (horse erythrocytes; 150 µM) | Hemolysis (horse erythrocytes; 250 µM) | Hemolysis (horse erythrocytes; 375 µM) | Described activity: Antibacterial (Gram-negative bacteria [3]) | Described activity: Antibiofilm (Gram-negative bacteria [4]) | Bactericidal activity: Reduction in viability (Log N0/N) [2] | further results
CC[C@H](C)[C@H](NC(=O)[C@H](CCCNC(=N)N)NC(=O)[C@@H](N)Cc1ccccc1)C(=O)N[C@@H](CCCNC(=N)N)C(=O)N[C@H](C(=O)N[C@@H](CCCNC(=N)N)C(=O)N[C@H](C(N)=O)C(C)C)C(C)C [FV7] (H-FRIRVRV-NH2; N-terminus assumed) | High (key: High: high antibiofilm activity (ratio of biofilm formation from 0.01 to 0.2); Moderate: moderate activity (ratio from 0.29 to 0.47); Low: low activity (ratio from 0.72 to 0.77)) | 0.20 ± 0.01 | 1.33 ± 0.17 | 0.07 ± 0.14 Log N0/N | 3.7 ± 0.4% | 4.4 ± 0.3% | 9.5 ± 1.4% | Ec, Pa, Se, Sp | Ec, Pa | – | –
CC[C@H](C)[C@H](NC(=O)[C@H](CCCNC(=N)N)NC(=O)[C@H](Cc1ccccc1)NC(=O)[C@H](CCCNC(=N)N)NC(=O)[C@@H](N)CCCCN)C(=O)N[C@@H](CCCNC(=N)N)C(=O)N[C@H](C(=O)N[C@@H](CCCNC(=N)N)C(=O)N[C@H](C(=O)N[C@H](C(=O)N[C@@H](CCCNC(=N)N)C(=O)N[C@@H](CCCCN)C(N)=O)[C@@H](C)CC)C(C)C)C(C)C [HH15] (H-KRFRIRVRVIRK-NH2) | – | – | – | – | 2.3 ± 0.3% | 4.5 ± 1.9% | 4.0 ± 0.4% | Pa, Bc | Pa, Bc | 0.21 ± 0.02 Log N0/N | Biofilm formation Level (antibiofilm activity) [1]: High (key: High: high antibiofilm activity (ratio of biofilm formation from 0.01 to 0.2); Moderate: moderate activity (ratio from 0.29 to 0.47); Low: low activity (ratio from 0.72 to 0.77)); Biofilm formation Ratio (treatment/NTC) [1]: 0.14 ± 0.01; Planktonic cells Ratio (treatment/NTC) [1]: 2.50 ± 0.05
CC[C@H](C)[C@H](NC(=O)CN)C(=O)N[C@@H](CC(C)C)C(=O)NCC(=O)N[C@@H](CCCCN)C(=O)N[C@@H](CC(C)C)C(=O)N[C@@H](Cc1c[nH]c2ccccc12)C(=O)N[C@@H](CCC(=O)O)C(=O)NCC(=O)N[C@H](C(=O)N[C@@H](CCCCN)C(=O)N[C@@H](CO)C(=O)N[C@H](C(=O)N[C@@H](Cc1ccccc1)C(N)=O)[C@@H](C)CC)C(C)C [HP1404] (H-GILGKLWEGVKSIF-NH2) | – | – | – | – | 100.0 ± 0.5% | 100.0 ± 3.9% | 100.0 ± 0.7% | Pa | Pa | 0.00 ± 0.12 Log N0/N | Biofilm formation Level (antibiofilm activity) [1]: High (key: High: high antibiofilm activity (ratio of biofilm formation from 0.01 to 0.2); Moderate: moderate activity (ratio from 0.29 to 0.47); Low: low activity (ratio from 0.72 to 0.77)); Biofilm formation Ratio (treatment/NTC) [1]: 0.15 ± 0.01; Planktonic cells Ratio (treatment/NTC) [1]: 2.75 ± 0.02
CC[C@H](C)[C@H](NC(=O)[C@H](CCCNC(=N)N)NC(=O)[C@@H](NC(=O)[C@H](C)NC(=O)[C@@H](NC(=O)[C@@H](NC(=O)[C@H](CC(C)C)NC(=O)[C@H](CCCNC(=N)N)NC(=O)[C@@H](N)C(C)C)[C@@H](C)CC)C(C)C)C(C)C)C(=O)N[C@@H](Cc1c[nH]c2ccccc12)C(=O)N[C@@H](CCCNC(=N)N)C(=O)N[C@@H](CCCNC(=N)N)C(N)=O [IDR-1018] (H-VRLIVAVRIWRR-NH2; N-terminus and C-terminus assumed) | High (key: High: high antibiofilm activity (ratio of biofilm formation from 0.01 to 0.2); Moderate: moderate activity (ratio from 0.29 to 0.47); Low: low activity (ratio from 0.72 to 0.77)) | 0.06 ± 0.01 | 1.72 ± 0.07 | 1.80 ± 0.01 Log N0/N | 35.6 ± 4.4% | 43.0 ± 0.2% | 45.9 ± 4.9% | Kp, Ec | Pa, Ec, Ab, Kp, Se, Bc | – | –
CC[C@H](C)[C@H](N)C(=O)N[C@@H](CC(C)C)C(=O)N1CCC[C@H]1C(=O)N[C@@H](Cc1c[nH]c2ccccc12)C(=O)N[C@@H](CCCCN)C(=O)N[C@@H](Cc1c[nH]c2ccccc12)C(=O)N1CCC[C@H]1C(=O)N[C@@H](Cc1c[nH]c2ccccc12)C(=O)N[C@@H](Cc1c[nH]c2ccccc12)C(=O)N1CCC[C@H]1C(=O)N[C@@H](Cc1c[nH]c2ccccc12)C(=O)N[C@@H](CCCNC(=N)N)C(=O)N[C@@H](CCCNC(=N)N)C(N)=O [Indolicidin] | – | – | – | – | 95.1 ± 5.0% | 100.0 ± 4.4% | 100.0 ± 2.5% | Xf | – | 2.46 ± 0.11 Log N0/N | Biofilm formation Level (antibiofilm activity) [1]: High (key: High: high antibiofilm activity (ratio of biofilm formation from 0.01 to 0.2); Moderate: moderate activity (ratio from 0.29 to 0.47); Low: low activity (ratio from 0.72 to 0.77)); Biofilm formation Ratio (treatment/NTC) [1]: 0.09 ± 0.01; Planktonic cells Ratio (treatment/NTC) [1]: 0.46 ± 0.07; log reduction of cell viability ([2]; 3 h, 50 μM): 2-3 log
CC[C@H](C)[C@H](NC(=O)[C@H](CCCNC(=N)N)NC(=O)[C@H](CCCNC(=N)N)NC(=O)[C@H](Cc1c[nH]c2ccccc12)NC(=O)[C@H](Cc1ccccc1)NC(=O)[C@@H](N)C(C)C)C(=O)N[C@@H](CCCNC(=N)N)C(=O)N[C@H](C(=O)N[C@@H](Cc1c[nH]c2ccccc12)C(=O)N[C@H](C(=O)N[C@H](C(=O)N[C@@H](CCCNC(=N)N)C(N)=O)[C@@H](C)CC)C(C)C)C(C)C [LJK2] (H-VFWRRIRVWVIR-NH2) | – | – | – | – | 28.4 ± 1.9% | 43.9 ± 3.7% | 72.4 ± 8.9% | – | – | 0.80 ± 0.10 Log N0/N | Effect on X. fastidiosa growth in the antibiofilm test [1]: affected X. fastidiosa’s growth
CC[C@H](C)[C@H](NC(=O)[C@H](CCCNC(=N)N)NC(=O)[C@@H](NC(=O)[C@H](Cc1c[nH]c2ccccc12)NC(=O)[C@@H](NC(=O)[C@@H](NC(=O)[C@@H](N)CCCNC(=N)N)[C@@H](C)CC)C(C)C)C(C)C)C(=O)N[C@@H](CCCNC(=N)N)C(=O)N[C@@H](CCCNC(=N)N)C(=O)N[C@@H](Cc1c[nH]c2ccccc12)C(=O)N[C@@H](Cc1ccccc1)C(=O)N[C@H](C(N)=O)C(C)C [RJK2] (H-RIVWVRIRRWFV-NH2) | High (key: High: high antibiofilm activity (ratio of biofilm formation from 0.01 to 0.2); Moderate: moderate activity (ratio from 0.29 to 0.47); Low: low activity (ratio from 0.72 to 0.77)) | 0.02 ± 0.00 | 1.54 ± 0.07 | 0.70 ± 0.08 Log N0/N | 19.2 ± 3.1% | 29.6 ± 2.2% | 50.2 ± 5.4% | – | – | – | –
CC[C@H](C)[C@H](NC(=O)[C@H](CCCNC(=N)N)NC(=O)[C@H](CCCNC(=N)N)NC(=O)[C@H](CC(C)C)NC(=O)[C@H](Cc1c[nH]c2ccccc12)NC(=O)[C@H](C)NC(=O)[C@H](CCCCN)NC(=O)[C@@H](NC(=O)[C@H](CCCNC(=N)N)NC(=O)[C@H](CCCNC(=N)N)NC(=O)[C@H](CC(C)C)NC(=O)[C@@H](N)Cc1c[nH]c2ccccc12)[C@@H](C)CC)C(=O)N[C@@H](CCCCN)C(=O)N[C@@H](C)C(=O)O [RR4-OH] | High (key: High: high antibiofilm activity (ratio of biofilm formation from 0.01 to 0.2); Moderate: moderate activity (ratio from 0.29 to 0.47); Low: low activity (ratio from 0.72 to 0.77)) | 0.09 ± 0.01 | 1.87 ± 0.10 | 1.94 ± 0.03 Log N0/N | 3.2 ± 1.0% | 9.8 ± 3.7% | 17.8 ± 0.3% | Pa, Ab | Pa, Ab | – | –
HOC11H22CO-ILPFKFPFFPFRR-NH2 [BP529] | High (key: High: high antibiofilm activity (ratio of biofilm formation from 0.01 to 0.2); Moderate: moderate activity (ratio from 0.29 to 0.47); Low: low activity (ratio from 0.72 to 0.77)) | 0.12 ± 0.03 | 2.29 ± 0.03 | 0.62 ± 0.09 Log N0/N | 7.2 ± 0.3% | 12.5 ± 0.6% | 39.0 ± 1.1% | – | – | – | –
KRIVKLILKWLR-NH2 [KR-12-a5] | – | – | – | 1.40 ± 0.07 Log N0/N | 79.0 ± 0.6% | 96.1 ± 1.8% | 100.0 ± 1.7% | Ec, Pa, Se | Pa | – | Effect on X. fastidiosa growth in the antibiofilm test ([1]; 50 µM): affected X. fastidiosa’s growth
Magainin 2 | – | – | – | 3.29 ± 0.11 Log N0/N | 35.2 ± 1.1% | 54.5 ± 3.7% | 71.1 ± 6.0% | Xf | – | – | Biofilm formation Level (antibiofilm activity) ([1]; 12.5 μM): Moderate (key: High: high antibiofilm activity (ratio of biofilm formation from 0.01 to 0.2); Moderate: moderate activity (ratio from 0.29 to 0.47); Low: low activity (ratio from 0.72 to 0.77)); Biofilm formation Ratio (treatment/NTC) ([1]; 28°C, 5 days): 0.47 ± 0.02; Planktonic cells Ratio (treatment/NTC) ([1]; 28°C, 5 days): 1.59 ± 0.13; Bactericidal activity: Reduction in viability (Log N0/N) ([2]; 3.1 µM): 0.49 ± 0.10 Log N0/N; log reduction ([2]; 3.1 µM): poorly active; Bactericidal activity: Reduction in viability (Log N0/N) ([2]; 12.5 μM): 2.07 ± 0.12 Log N0/N; log reduction ([2]; 12.5 μM): 2 log
